According to patent EP0589874B1, “USE OF (S)(+)-2-ETHOXY-4-[N-[1-(2-PIPERIDINOPHENYL)-3-METHYL-1-BUTYL]AMINOCARBONYLMETHYL]BENZOIC ACID FOR THE PREPARATION OF A LONGLASTING ANTIDIABETIC MEDICAMENT” (Boehringer Ingelheim Pharma KG, priority 1991, dated 1993):
Read-outs that look alike come from different tables or passages of the source.

Key:
weiblichen Ratten = assay: Blood-glucose-lowering effect in female rats; assay type: in vivo, Ratte; settings: for blutzuckersenkende Wirkung: female rats
From the text: Die beiden Enantiomeren dieser Verbindung, nämlich (S)(+)-2-Äthoxy-4-[N-[1-(2-piperidino-phenyl)-3-methyl-1-butyl] aminocarbonylmethyl]-benzoesäure (Code-Nr.: AG-EE 623 ZW) und (R)(-)-2-Äthoxy-4-[N-[1-(2-piperidino-phenyl)-3-methyl-1-butyl]aminocarbonylmethyl]-benzoesäure (Code-Nr.: AG-EE 624 ZW), wurden auf ihre blutzuckersenkende Wirkung an weiblichen Ratten geprüft.

[1] = Plasma concentrations in volunteers after one tablet of racemate or (S)-enantiomer; assay type: in vivo, Menschen; settings: human, po; for concentration at 4 h: read-out: Konzentrationen nach 4 Stunden; for concentration at 5 h: read-out: Konzentrationen nach 5 Stunden; for concentration at 6 h: read-out: Konzentrationen nach 6 Stunden; for Cmax: read-out: Maximal-Konzentrationen
Experimental: (§1) Abbildung 1 gibt hierbei die Plasma-Konzentration von AG-EE 623 ZW und AG-EE 624 ZW nach 1,0 mg i.v. AG-EE 388 ZW und Abbildung 2 die Plasma-Konzentration von AG-EE 623 ZW und AG-EE 624 ZW nach 1,0 mg p.o. (Lösung) AG-EE 388 ZW jeweils an 12 freiwilligen männlichen Probanden wieder. […] Dies wirkt sich z.B. bei Applikation einer Tablette mit 2 mg AG-EE 388 ZW bzw. einer Tablette mit 1 mg AG-EE 623 ZW an 12 bzw. 6 Probanden so aus, daß die Maximal-Konzentrationen 84 ± 25 bzw. 28 ± 18 ng/ml sowie die Konzentrationen nach 4 Stunden 19 ± 8 bzw. 0,7 ± 1,0 ng/ml, nach 5 Stunden 13 ± 6 bzw. 0,3 ± 0,7 ng/ml und nach 6 Stunden 10 ± 6 bzw. 0,3 ± 0,7 ng/ml betragen.

[2] = set-up: species or system Menschen; settings: in vivo
Experimental: as §1

[3] = assay type: in vivo, Menschen
From the text: Auf Grund dieser Ergebnisse an der Ratte erscheint für den Menschen die ausschließliche Verwendung von AG-EE 623 ZW geboten, wodurch die Dosis im Vergleich zur AG-EE 388 ZW-Dosis um 50 % reduziert werden kann. […] Darüber hinaus wurde jedoch bei den Human-Studien gefunden, daß AG-EE 623 ZW überraschende pharmakokinetische Eigenschaften aufweist, die auf Grund der AG-EE 388 ZW-Daten nicht vorhersehbar waren. AG-EE 623 ZW zeigt somit überraschende therapeutische Vorteile gegenüber dem Racemat AG-EE 388 ZW.

Ratten = assay: Acute oral toxicity in rats, single dose, 14 days observation; assay type: in vivo
[4] = tablet with 1 mg AG-EE 623 ZW, 6 volunteers
[5] = tablet with 2 mg AG-EE 388 ZW, 12 volunteers

concentration at 4 h [1, 5] [ng/mL] | concentration at 5 h [1, 5] [ng/mL] | concentration at 6 h [1, 5] [ng/mL] | Cmax [1, 5] [ng/mL] | Compound | blutzuckersenkende Wirkung (weiblichen Ratten) | Dauer der Wirkung (Wirkung hält an) (weiblichen Ratten; rat) [Stunden] | concentration at 4 h [1, 4] [ng/mL] | concentration at 5 h [1, 4] [ng/mL] | concentration at 6 h [1, 4] [ng/mL] | Cmax [1, 4] [ng/mL] | Elimination (Plasma-Konzentration) [2] | Eintritt der blutzuckersenkenden Wirkung ([3]; human) | Wirkungsdauer ([3]; human) | Abfall der Spiegel ([3]; in vivo) | Plasmaspiegel in Relation zur erzielten Blutzuckersenkung ([3]; in vivo) | Toxizität (Ratten; rats, 1000 mg/kg p.o.) | verstorbene Tiere (Ratten; single 1000 mg/kg p.o., suspension in 1% methylcellulose, 5 male and 5 female rats, 14 days) | Plasma-Konzentrationen nach Racemat-Gabe [2]
 |  |  |  | CCOc1cc(CC(=O)N[C@@H](CC(C)C)c2ccccc2N2CCCCC2)ccc1C(=O)O [AG-EE 623 ZW, (S)(+)-2-Äthoxy-4-[N-[1-(2-piperidino-phenyl)-3-methyl-1-butyl]aminocarbonylmethyl]-benzoesäure] | wirksame Enantiomere | > 6 | 0.7 | 0.3 | 0.3 | 28 ± 18 | wesentlich schneller als das unwirksame Enantiomere, AG-EE 624 ZW, eliminiert | rascher ein als nach AG-EE 388 ZW-Gabe | relativ lange Wirkungsdauer | fallen rascher gegen null als die AG-EE 388 ZW-Spiegel | wesentlich niedrigere Plasmaspiegel | praktisch untoxisch | kein Tier | 
19 ± 8 | 13 ± 6 | 10 ± 6 | 84 ± 25 | CCOc1cc(CC(=O)NC(CC(C)C)c2ccccc2N2CCCCC2)ccc1C(=O)O (racemic) [AG-EE 388 ZW, 2-Äthoxy-4-[N-[1-(2-piperidino-phenyl)-3-methyl-1-butyl]aminocarbonylmethyl]-benzoesäure, reference compound] |  |  |  |  |  |  |  |  |  |  |  |  |  | 
 |  |  |  | CCOc1cc(CC(=O)N[C@H](CC(C)C)c2ccccc2N2CCCCC2)ccc1C(=O)O [AG-EE 624 ZW, (R)(-)-2-Äthoxy-4-[N-[1-(2-piperidino-phenyl)-3-methyl-1-butyl]aminocarbonylmethyl]-benzoesäure] | unwirksame Enantiomere |  |  |  |  |  |  |  |  |  |  |  |  | in unerwartet höheren Maximal- und Dauer-Spiegeln anwesend
